From patent US8367653B2, “Azetidinyl diamides as monoacylglycerol lipase inhibitors” (Janssen Pharmaceutica NV, priority 2009, dated 2013)
Read-outs that look alike come from different tables or passages of the source.

Legend:
[1] = system: murine model of acute inflammation; conditions: Comelli et al. 2007; cited from earlier work
[2] = biological target: T1, MGL (rat brain homogenate) (Rattus norvegicus, UniProt Q8R431); assay: 2-AG Accumulation Assay in rat brain homogenate; format: biochemical; conditions: 0.25 h, compound 1 μM, percent of vehicle 2-AG accumulation, read-out: Rat Brain 2AG % VehCntrl (%) @1 μM
T1 construct: pre-incubated with rat brain homogenate (50 mg); from tissue; host or cells: rat brain homogenate
T1 sequence (Q8R431 1-303): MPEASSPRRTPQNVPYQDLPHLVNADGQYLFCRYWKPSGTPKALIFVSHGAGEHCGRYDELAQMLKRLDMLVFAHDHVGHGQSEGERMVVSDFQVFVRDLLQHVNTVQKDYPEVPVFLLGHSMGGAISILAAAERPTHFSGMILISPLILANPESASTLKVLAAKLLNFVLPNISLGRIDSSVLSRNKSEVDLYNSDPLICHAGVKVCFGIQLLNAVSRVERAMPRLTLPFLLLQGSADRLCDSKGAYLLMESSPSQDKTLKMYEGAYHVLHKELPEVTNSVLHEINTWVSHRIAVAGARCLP

[3] = system: CFA-induced paw radiant heat hypersensitivity; assay: CFA-Induced Paw Radiant Heat Hypersensitivity; format: in vivo; conditions: CFA thermal hypersensitivity, rat, 30 mg/kg p.o., HPβCD; group mean values; last time point 180 or 300 min
Method: Each rat was placed in a test chamber on a warm glass surface and allowed to acclimate for approximately 10 min. A radiant thermal stimulus (beam of light) was then focused through the glass onto the plantar surface of each hind paw in turn. The thermal stimulus was automatically shut off by a photoelectric relay when the paw was moved or when the cut-off time was reached (20 sec for radiant heat at ˜5 amps). An initial (baseline) response latency to the thermal stimulus was recorded for each animal prior to the injection of complete Freund's adjuvant (CFA). […] Immediately following the post-CFA latency assessment, the indicated test compound or vehicle was administered orally.
The percent reversal (% R) of hypersensitivity was calculated in one of two different ways: 1) using group mean values or 2) using individual animal values. More specifically:
Method 2. For some compounds, the % R of hypersensitivity was calculated separately for each animal according to the following formula: % reversal=[(individual treatment response−individual CFA response)/(individual baseline response−individual CFA response)]×100. Results are given as a mean of the maximum % reversal values calculated for each individual animal.

[4] = system: tail flick; conditions: intravenous delivery (Mechoulam et al. 1995); cited from earlier work
[5] = system: hot plate; conditions: cited from earlier work

## O=C(Nc1cccc(-c2ccccc2)c1)OC1CCCCC1 [URB602]
[1]
  antinociceptive effect: antinociceptive effect

## Cc1ccc(-n2ccc3cc(C(=O)N4CC(N5CCN(C(=O)c6nccs6)CC5)C4)ccc32)nc1 [Cpd 1073, 1-(5-Methylpyridin-2-yl)-5-({3-[4-(1,3-thiazol-2-ylcarbonyl)piperazin-1-yl]azetidin-1-yl}carbonyl)-1H-indole]
[2]
  activity at 1 µM: 749%

## O=C(c1ccc(-c2cccc(C(F)(F)F)c2)c(Cl)c1)N1CC(N2CCN(C(=O)c3cscn3)CC2)C1 [Cpd 1102]
[3]
  Method 1: peak % reversal: 38%

## C/C(=C\c1ccc(Cl)cc1)c1c(C)c(C(=O)N2CC(N3CCN(C(=O)c4nccs4)CC3)C2)nn1-c1ccc(Cl)cc1Cl [Cpd 1010]
[3]
  Method 1: peak % reversal: 23.4%

## CCCCC/C=C\C/C=C\C/C=C\C/C=C\CCCC(=O)OC(CO)CO [2-AG, 2-arachidinoylglycerol]
[4]
  analgesia in the tail flick assay: produces analgesia
[5]; combined with 2-linoleoyl glycerol and 2-palmitoyl glycerol (Ben-Shabat et al. 1998)
  analgesia in the hot plate assay: significant analgesia
[5]; given alone (Ben-Shabat et al. 1998)
  analgesia in the hot plate assay: not analgesic
[5]; intravenous delivery (Lichtman et al. 2002)
  analgesia in the hot plate assay: produces analgesia
